TGI and GI50 data for 17 compounds are collected here from PubChem BioAssay (NCI).

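Five compound concentrations were applied to cells in 96-well plates for 48 hours; endpoints were derived by simple linear interpolation of the resulting dose-response curve. Here, GI50 denotes the concentration required for 50% inhibition of growth. The concentration for full growth arrest is given as TGI.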 Some results are limits rather than exact numbers.

Common to all, as to experiment: NCI tumour cell line growth inhibition, 48 h
The subject of test [1] is NCI/ADR-RES ovarian.
In test [2] the test system is K-562 leukemia.
For test [3], the system named is HOP-92 NSCLC.
Test [4] deals with T-47D breast.
Test [5] deals with SR leukemia.
The test system of test [6] is MALME-3M melanoma.
Test [7] relates to ACHN renal.
The test system of test [8] is CCRF-CEM leukemia.
Test [9] deals with NCI-H522 lung.
Test [10] deals with MDA-MB-231 breast.

With `O=C(Sc1c(-c2ccccc2)c(=O)n(-c2ccccc2)c(=S)n1-c1ccccc1)c1cccs1`, the TGI in test [1], in [2], in [3], in [4], in test [5] and in [6] was over 100 µM throughout. The TGI in test [7] is over 100 µM; in [8], 97.8 µM; in test [9] it was over 100 µM.

In the case of `COc1ccc2nc3c(c(NCCCN(C)C)c2c1)CCCC3`, the TGI came out at 8.3 µM in test [2]; 21.1 µM in [3]; 5.77 µM in [5]; 33.9 µM in [6]; 55.3 µM in test [7]; 28.3 µM in test [8]. For the same compound, the TGI in test [9] is 31.3 µM.

For the compound `CC(=O)NNc1nc(C)c(C(=O)NNC(=O)C(=O)Nc2cccc(C(C)=O)c2)s1`, the TGI in test [2] is over 100 µM; in [3], 90 µM; in test [5], 45.8 µM; in [7], 30.8 µM; in test [8], 67.3 µM; in [9], 28.9 µM.

Take `Cc1ccc(N(O)C(C)(C)C)cc1`: the TGI in test [1], in [2], in [3], in [6], in test [8] and in test [9] was over 100 µM in each case.

`CC(C)(O)C1CC[C@]2(C)[C@H]3CC[C@@H]4[C@@]5(C)CCCC(C)(C)[C@@H]5CC[C@@]4(C)[C@]3(C)CC[C@@H]12` (some centres not stated): the TGI in test [1], in test [10], in [3], in test [4], in test [6] and in [7] was over 100 µM each time. For the same compound, the TGI in [8] and in test [9] was over 100 µM throughout.

In the case of `CC1(C)C(CCO)CC1n1ccc(=O)[nH]c1=O` (configuration not stated), the TGI in test [1] is over 100 µM; in [10], over 100 µM; in [2], 72.4 µM; in test [3], over 100 µM; in test [4] it was over 100 µM; in test [7] it was over 100 µM. For the same compound, the TGI in test [8] was over 100 µM.

On to `Cc1cn(C2CC(CCCO)C(CO)O2)c(=O)[nH]c1=O` (configuration not stated), for which the TGI in test [2], in test [5], in [6], in test [7], in test [8] and in [9] was over 100 µM in each case. Besides, in test [8], the GI50 was over 100 µM.

In the case of `COc1cccc(/C(Cl)=C(\C=O)c2cccc(OC)c2)c1`, the TGI in test [2] was found to be 46 µM; in test [3] it was 36 µM; in test [5], 39.5 µM; in [6], 12.8 µM; in test [7] it was 25.8 µM; in [8], 28.8 µM. Moreover, in test [9], the TGI was 11.4 µM.

For the compound `O=S(=O)(c1ccc(-c2nnc(-c3ccc(F)cc3)o2)cc1)c1ccc(-c2nnc(-c3ccc(F)cc3)o2)cc1`, the TGI in [1] was over 100 µM; in [2], over 100 µM; in test [3], over 100 µM; in test [4], over 100 µM; in test [6] it was over 100 µM; in test [7], 46.8 µM. Further, the TGI in test [8] and in test [9] was over 100 µM in each case.

Consider `CCOC(=O)C(C)Sc1nnc(COc2ccccc2OC)n1-c1ccccc1` (configuration not stated), for which the TGI in [2], in test [3], in [6], in [7], in test [8] and in [9] was over 100 µM each time.

As to `COC(=O)C1=C(O)C(C(=O)OC)[C@]2(O)[C@@H](C(=O)OC)[C@H]1C[C@@H](c1ccccc1)[C@@H]2C(=O)OC` (some centres not stated), the TGI in [10] is 49.3 µM; in [2], 33.4 µM; in [4], over 100 µM; in test [5], 24.1 µM; in test [6], 45.1 µM; in test [7] it was 55.7 µM. Moreover, the TGI in test [8] was 49.3 µM; in test [9], 20.6 µM.

Consider `CC(C)(C)C(=O)OCC1OC(N=[N+]=[N-])C(OC(=O)C(C)(C)C)C(OC(=O)C(C)(C)C)C1OC(=O)C(C)(C)C` (configuration not stated), for which the TGI in test [2], in [3], in test [5], in test [6], in test [7] and in test [8] was over 100 µM in each case. Further, the TGI in test [9] was over 100 µM.

Regarding `CCOC(=O)c1c(C)nc2c(c1-c1cn(-c3ccccc3)nc1-c1ccccc1)C(=O)c1ccccc1-2`, the TGI in test [1], in test [10], in [2], in test [3], in test [4] and in test [6] was over 100 µM each time. Moreover, the TGI in test [8] and in test [9] was over 100 µM each time.

As for `CN1N=C(c2ccncc2)OC1c1cccc(C(F)(F)F)c1` (configuration not stated), the TGI in test [1], in [10], in test [2], in test [4], in test [7] and in [8] was over 100 µM throughout. In [9], this compound showed a TGI of over 100 µM.

For the compound `CCC(COC(=O)CC[C@@H](NC(=O)C(C)NC(=O)C(C)OC1C(O)C(CO)OC(OCc2ccccc2)C1NC(C)=O)C(N)=O)NC1c2ccccc2Nc2cccc([N+](=O)[O-])c21` (some centres not stated), the TGI in test [2], in test [3], in test [5], in [6], in test [7] and in test [8] was over 100 µM each time. The same compound returned a TGI in test [9] of over 100 µM.

In the case of `[O-][n+]1c(CN2CCCCC2)nc2cccc3c2c1-c1ccccc1-3`, the TGI in [1] is 84.6 µM; in test [10], 95.6 µM; in [2] it was over 100 µM; in test [3], 85.6 µM; in test [5], over 100 µM; in test [6] it was 29 µM. In addition, the TGI in [7] is 70.5 µM.

Turning to `O=c1c2ccccc2nc(-c2ccccc2)n1NC(=S)Nc1ccc(Cl)cc1`, the TGI in test [2], in test [3], in [5], in [6], in [7] and in test [8] was over 100 µM throughout. The compound further showed a TGI in test [9] of over 100 µM.
